Measurements reported in patent US6274715A, “Tricyclic erythromycin derivatives” (priority 1997, dated 2001).
Values after ≈ are worked out from the molar mass of the structure shown. Like-named read-outs stand apart in the source and are kept apart here.

Legend:
Assay type in all cases: cell-based
[1] = test system: STAPHYLOCOCCUS AUREUS ATCC 6538P; assay: In vitro antibacterial activity, MIC, BHI agar dilution; conditions: S. aureus ATCC 6538P, 35-37° C., 20 to 24 hours, unit assumed
[2] = test system: STAPHYLOCOCCUS AUREUS A5177; assay: as above; conditions: S. aureus A5177, unit assumed
[3] = test system: STAPHYLOCOCCUS AUREUS A-5278; assay: as above; conditions: S. aureus A-5278, unit assumed
[4] = test system: STAPHYLOCOCCUS AUREUS CMX 642A; assay: as above; conditions: S. aureus CMX 642A
[5] = test system: STAPHYLOCOCCUS AUREUS NCTC10649M; assay: as above; conditions: S. aureus NCTC10649M
[6] = test system: STAPHYLOCOCCUS AUREUS CMX 553; assay: as above
[7] = test system: STAPHYLOCOCCUS AUREUS 1775; assay: as above; conditions: S. aureus 1775, unit assumed
EN[…] ATCC 8043 = assay: as above; conditions: E. faecium ATCC 8043, unit assumed
Outline: (§1)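 MIC was read visually as the lowest drug level with no growth, a slight haze or sparsely isolated colonies relative to a compound-free growth control. Organisms were spotted at 1:100 dilution (1:10 for slow-growing strains) onto Brain Heart Infusion agar containing serial compound dilutions and incubated 20 to 24 hours at 35-37° C.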

M[…] ATCC 4698 = assay: as above
Outline: as §1

M[…] ATCC 9341 = assay: as above
Outline: as §1

STR[…] 508 = assay: as above
Outline: as §1

[8] = test system: STREPTOCOCCUS BOVIS A-5169; assay: as above
[9] = test system: STREPTOCOCCUS PYOGENES EES61; assay: as above; conditions: S. pyogenes EES61, unit assumed
[10] = test system: STREPTOCOCCUS PYOGENES 930; assay: as above; conditions: S. pyogenes 930, unit assumed
[11] = test system: STREPTOCOCCUS PYOGENES PIU 2548; assay: as above
ESCHERICHIA COLI JUHL = conditions: E. coli JUHL; BHI agar; unit assumed
ESCHERICHIA COLI SS = assay: In vitro antibacterial activity, MIC, BHI agar dilution; conditions: E. coli SS, unit assumed
ESCHERICHIA COLI DC-2 = assay: as above
ESCHERICHIA COLI H560 = assay: as above; conditions: E. coli H560, unit assumed
ESCHERICHIA COLI KNK 437 = conditions: E. coli KNK 437, BHI agar, unit assumed
[12] = test system: ENTEROBACTER AEROGENES ATCC 13048; assay: In vitro antibacterial activity, MIC, BHI agar dilution
[13] = test system: KLEBSIELLA PNEUMONIAE ATCC 8045; assay: as above
[14] = test system: PROVIDENCIA STUARTII CMX 640; conditions: P. stuartii CMX 640; BHI agar; unit assumed
[15] = test system: PSEUDOMONAS AERUGINOSA BMH10; assay: In vitro antibacterial activity, MIC, BHI agar dilution
[16] = test system: PSEUDOMONAS AERUGINOSA 5007; assay: as above
[17] = test system: PSEUDOMONAS AERUGINOSA K799/WT; assay: as above; conditions: P. aeruginosa K799/WT
[18] = test system: PSEUDOMONAS AERUGINOSA K799/61; assay: as above
PSEUDOMONAS CEPACIA 296I = assay: as above; conditions: P. cepacia 296I, unit assumed
[19] = test system: ACINETOBACTER CALCOACETICUS CMX 669; assay: as above; conditions: A. calcoaceticus CMX 669, unit assumed
[20] = test system: PSEUDOMONAS AERUGINOSA DPHD-5263; assay: as above; conditions: P. aeruginosa DPHD-5263, unit assumed
[21] = test system: PSEUDOMONAS AERUGINOSA DPHD-2862; assay: as above; conditions: P. aeruginosa DPHD-2862, unit assumed
CANDIDA ALBICANS CCH 442 = assay: as above; conditions: C. albicans CCH 442, unit assumed
[22] = test system: STAPHYLOCOCCUS EPIDERMIDIS 3519; conditions: S. epidermidis 3519; BHI agar; unit assumed
[23] = test system: MYCOBACTERIUM SMEGMATIS ATCC 114; assay: In vitro antibacterial activity, MIC, BHI agar dilution; conditions: M. smegmatis ATCC 114, unit assumed
[24] = S. aureus CMX 553, unit assumed
[25] = M. luteus ATCC 4698, unit assumed
[26] = M. luteus ATCC 9341, unit assumed
[27] = S. pyogenes PIU 2548, unit assumed
[28] = E. aerogenes ATCC 13048, unit assumed
[29] = K. pneumoniae ATCC 8045, unit assumed
[30] = P. aeruginosa BMH10, unit assumed
[31] = P. aeruginosa 5007, unit assumed
[32] = P. aeruginosa K799/61, unit assumed

Compound	MIC [1] [µg/mL]	MIC [2] [µg/mL]	MIC [3] [µg/mL]	MIC [7] [µg/mL]	MIC (EN[…] ATCC 8043) [µg/mL]	MIC [9] [µg/mL]	MIC [10] [µg/mL]	MIC (ESCHERICHIA COLI JUHL) [µg/mL]	MIC (ESCHERICHIA COLI SS) [µg/mL]	MIC (ESCHERICHIA COLI H560) [µg/mL]	MIC [14] [µg/mL]	MIC (PSEUDOMONAS CEPACIA 296I) [µg/mL]	MIC [19] [µg/mL]	MIC [20] [µg/mL]	MIC [21] [µg/mL]	MIC (CANDIDA ALBICANS CCH 442) [µg/mL]	MIC ([4]; unit assumed) [µg/mL]	MIC ([5]; unit assumed) [µg/mL]	MIC [6, 24] [µg/mL]	MIC [22] [µg/mL]	other results
CC[C@H]1OC(=O)[C@H](C)C(=O)[C@H](C)[C@@H](O[C@@H]2O[C@H](C)C[C@H](N(C)C)[C@H]2O)[C@](C)(OC)C[C@@H](C)C2=NC3CN(CCCc4ccccc4)CC3N3C(=O)O[C@@]1(C)[C@H]3[C@H]2C (stereo partly drawn) [Example 111]	0.2 (≈ 0.251 µM)	0.2 (≈ 0.251 µM)	> 100	> 100	0.1 (≈ 0.125 µM)	0.02 (≈ 0.0251 µM)	50 (≈ 62.7 µM)	100 (≈ 125 µM)	0.39 (≈ 0.489 µM)	50 (≈ 62.7 µM)	> 100	25 (≈ 31.4 µM)	> 100	> 100	> 100	0.39 (≈ 0.489 µM)					MIC ([4]; listed as Ex 111, unit assumed): 0.39 µg/mL (≈ 0.489 µM); MIC ([5]; listed as Ex 111, unit assumed): 0.2 µg/mL (≈ 0.251 µM); MIC ([6]; S. aureus CMX 553, listed as Ex 111, unit assumed): 0.2 µg/mL (≈ 0.251 µM); MIC (M[…] ATCC 4698; M. luteus ATCC 4698, listed as Ex 111, unit assumed): 0.39 µg/mL (≈ 0.489 µM); MIC (M[…] ATCC 9341; M. luteus ATCC 9341, listed as Ex 111, unit assumed): 0.05 µg/mL (≈ 0.0627 µM); MIC (STR[…] 508; S. agalactiae CMX 508, listed as Ex 111, unit assumed): 0.05 µg/mL (≈ 0.0627 µM); MIC ([8]; S. bovis A-5169, listed as Ex 111, unit assumed): 0.01 µg/mL (≈ 0.0125 µM); MIC ([11]; S. pyogenes PIU 2548, listed as Ex 111, unit assumed): 0.39 µg/mL (≈ 0.489 µM); MIC (ESCHERICHIA COLI DC-2; E. coli DC-2, listed as Ex 111, unit assumed): 100 µg/mL (≈ 125 µM); MIC (ESCHERICHIA COLI KNK 437; listed as Ex 111): > 100 µg/mL; MIC ([12]; E. aerogenes ATCC 13048, listed as Ex 111, unit assumed): > 100 µg/mL; MIC ([13]; K. pneumoniae ATCC 8045, listed as Ex 111, unit assumed): > 100 µg/mL; MIC ([15]; P. aeruginosa BMH10, listed as Ex 111, unit assumed): > 100 µg/mL; MIC ([16]; P. aeruginosa 5007, listed as Ex 111, unit assumed): 100 µg/mL (≈ 125 µM); MIC ([17]; listed as Ex 111, unit assumed): 1.56 µg/mL (≈ 1.96 µM); MIC ([18]; P. aeruginosa K799/61, listed as Ex 111, unit assumed): 50 µg/mL (≈ 62.7 µM)
C#CCN1CC2N=C3[C@H](C)C[C@@](C)(OC)[C@H](O[C@@H]4O[C@H](C)C[C@H](N(C)C)[C@H]4O)[C@@H](C)C(=O)[C@@H](C)C(=O)O[C@H](CC)[C@@]4(C)OC(=O)N(C2C1)[C@@H]4[C@H]3C (stereo partly drawn) [Example 117]	0.78 (≈ 1.09 µM)	0.78 (≈ 1.09 µM)	> 100	> 100	0.2 (≈ 0.279 µM)		> 100	> 100		50 (≈ 69.7 µM)	> 100	> 100	> 100	> 100	> 100	> 100	0.78 (≈ 1.09 µM)	0.78 (≈ 1.09 µM)	0.78 (≈ 1.09 µM)	1.56 (≈ 2.18 µM)	MIC (M[…] ATCC 4698; [25]): 0.39 µg/mL (≈ 0.544 µM); MIC (M[…] ATCC 9341; [26]): 0.2 µg/mL (≈ 0.279 µM); MIC (STR[…] 508; S. agalactiae CMX 508, unit assumed): 0.05 µg/mL (≈ 0.0697 µM); MIC ([8]; S. bovis A-5169, unit assumed): 0.05 µg/mL (≈ 0.0697 µM); MIC [11, 27]: 0.78 µg/mL (≈ 1.09 µM); MIC (ESCHERICHIA COLI DC-2; E. coli DC-2, unit assumed): > 100 µg/mL; MIC (ESCHERICHIA COLI KNK 437): > 100 µg/mL; MIC [12, 28]: > 100 µg/mL; MIC [13, 29]: > 100 µg/mL; MIC [15, 30]: > 100 µg/mL; MIC [16, 31]: > 100 µg/mL; MIC ([17]; unit assumed): > 100 µg/mL; MIC [18, 32]: 3.1 µg/mL (≈ 4.32 µM); MIC [23]: 3.1 µg/mL (≈ 4.32 µM)
CCC1OC(=O)C(C)C(=O)C(C)C(OC2OC(C)CC(N(C)C)C2O)C(C)(OC)CC(C)C2=NCC(CSc3ccccc3)(CN(C)Cc3ccccc3)N3C(=O)OC1(C)C3C2C (stereo not drawn) [Example 133]	0.78 (≈ 0.873 µM)	0.78 (≈ 0.873 µM)	25 (≈ 28 µM)	25 (≈ 28 µM)	0.1 (≈ 0.112 µM)	0.02 (≈ 0.0224 µM)	6.2 (≈ 6.94 µM)	> 100	12.5 (≈ 14 µM)	> 100	> 100	> 100	> 100	> 100	> 100	50 (≈ 56 µM)	1.56 (≈ 1.75 µM)	1.56 (≈ 1.75 µM)	1.56 (≈ 1.75 µM)	1.56 (≈ 1.75 µM)	MIC (M[…] ATCC 4698; [25]): 1.56 µg/mL (≈ 1.75 µM); MIC (M[…] ATCC 9341; [26]): 0.2 µg/mL (≈ 0.224 µM); MIC [11, 27]: 1.56 µg/mL (≈ 1.75 µM); MIC (ESCHERICHIA COLI DC-2; E. coli DC-2, unit assumed): > 100 µg/mL; MIC (ESCHERICHIA COLI KNK 437): > 100 µg/mL; MIC [12, 28]: > 100 µg/mL; MIC [13, 29]: > 100 µg/mL; MIC [15, 30]: > 100 µg/mL; MIC [16, 31]: > 100 µg/mL; MIC ([17]; unit assumed): > 100 µg/mL; MIC [18, 32]: 12.5 µg/mL (≈ 14 µM); MIC [23]: 0.78 µg/mL (≈ 0.873 µM)
